From US6750244B2, “Compounds active at a novel site on receptor-operated calcium channels useful for treatment of neurological disorders and diseases” (NPS Pharmaceuticals, Inc., priority 1993, dated 2004)
Where “and” joins values, the source holds several entries; their conditions need not be identical. Equal entries are not always repeated. Structures can show the parent of a compound that is named as a salt. Where two headings read alike, the source gives them in different places.

Tests used:
NMDA receptor = experiment: Inhibition of NMDA/glycine-induced increases in intracellular calcium in cultured rat cerebellar granule cells (RCGC); type: cell-based; conditions: NMDA/glycine-induced increases in intracellular calcium, cultured rat cerebellar granule cells; read-out: IC50 (μM) vs. NMDA
induction of LTP = system: induction of LTP; design: species or system rat; conditions: slices superfused 30-60 min
[1] = system: mean arterial blood pressure; conditions: for no effect on mean arterial blood pressure / no (significant) cardiovascular activity at doses up to: i.v.
[2] = target: NMDA receptor-ionophore complex (site labeled by [3H]MK-801); experiment: Inhibition of [3H]MK-801 binding in rat cortical/hippocampal washed membrane preparations; conditions: read-out: IC50 (μM) vs. [3H]MK-801, rat cortical/hippocampal washed membranes
sound-induced seizures = experiment: Sound-induced seizures in Frings mice (reflex epilepsy); type: in vivo; conditions: for IC50, prevention of sound-induced seizures: intracerebroventricular (i.c.v.) injection; for ED50: Mus musculus, ip, Frings mice
motor performance = experiment: Acute motor impairment (rotorod) in mice; conditions: Frings mice; for TD50, acute motor impairment: i.c.v. injection
Method: (§1) In this assay, Frings and CF1 mice were injected with test compound and placed on a knurled rod which rotated at a speed of 6 rpm. The ability of the mice to maintain equilibrium for long periods of time was determined; those mice that were unable to maintain equilibrium on the rotorod for 1 min in each of 3 trials were considered impaired.

in vivo = conditions: Frings, mouse, in vivo, ip
Method: as §1

[3] = system: central muscarinic cholinergic receptor; type: binding, rat
dopamine uptake site = target: T1, dopamine uptake site (Cavia porcellus, UniProt H0WCX4); experiment: Dopamine uptake binding assay: [3H]WIN-35,428 binding to guinea pig striatal membranes
T1 construct: from tissue; host or cells: guinea pig striatal membranes (per the assay title)

[4] = target: T2, norepinephrine uptake site (Rattus norvegicus, UniProt Q63380); experiment: Norepinephrine uptake binding assay: [3H]desipramine binding to rat cortical membranes
T2 construct: from tissue; host or cells: rat cortical membranes (per the assay title)

serotonin uptake site = target: T3, serotonin uptake site (Rattus norvegicus, UniProt P31652); experiment: Serotonin uptake binding assay: [3H]citalopram binding to rat forebrain membranes
T3 construct: from tissue; host or cells: rat forebrain membranes (per the assay title)

behavior = experiment: Behavioral effects in conscious male NMRI mice
L-type calcium channel = system: T4, L-type calcium channel; experiment: Inhibition of KCl depolarization-induced increases in intracellular calcium in cultured rat cerebellar granule cells; type: cell-based; conditions: cultured rat cerebellar granule cells; read-out: L-type calcium channel: estimated IC50, KCl depolarization-induced increases in intracellular calcium
T4 construct: L-type calcium channel: estimated IC50, KCl depolarization-induced increases in intracellular calcium; other: cultured
From the text: The ability of arylalkylamines to inhibit dihydropyridine-sensitive Ca^2+ channels was examined in cerebellar granule cells and a rat aortic smooth muscle cell line, A7r5 cells.

T1 sequence (H0WCX4 1-619): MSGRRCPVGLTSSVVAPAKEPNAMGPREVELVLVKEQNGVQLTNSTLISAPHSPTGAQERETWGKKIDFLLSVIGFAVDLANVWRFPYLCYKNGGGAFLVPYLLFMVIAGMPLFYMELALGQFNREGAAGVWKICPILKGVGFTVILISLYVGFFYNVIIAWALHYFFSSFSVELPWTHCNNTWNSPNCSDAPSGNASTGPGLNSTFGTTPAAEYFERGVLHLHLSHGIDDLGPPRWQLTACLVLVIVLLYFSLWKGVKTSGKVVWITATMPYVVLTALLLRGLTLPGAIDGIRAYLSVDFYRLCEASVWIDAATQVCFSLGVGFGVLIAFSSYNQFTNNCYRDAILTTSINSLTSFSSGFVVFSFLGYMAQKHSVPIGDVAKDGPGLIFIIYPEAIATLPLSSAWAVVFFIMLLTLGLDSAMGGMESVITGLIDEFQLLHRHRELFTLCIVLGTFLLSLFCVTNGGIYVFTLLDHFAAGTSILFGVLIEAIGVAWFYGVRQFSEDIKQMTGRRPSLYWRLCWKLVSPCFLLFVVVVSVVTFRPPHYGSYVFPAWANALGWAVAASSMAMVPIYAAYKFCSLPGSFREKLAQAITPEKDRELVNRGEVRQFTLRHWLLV
T2 sequence (Q63380 1-617): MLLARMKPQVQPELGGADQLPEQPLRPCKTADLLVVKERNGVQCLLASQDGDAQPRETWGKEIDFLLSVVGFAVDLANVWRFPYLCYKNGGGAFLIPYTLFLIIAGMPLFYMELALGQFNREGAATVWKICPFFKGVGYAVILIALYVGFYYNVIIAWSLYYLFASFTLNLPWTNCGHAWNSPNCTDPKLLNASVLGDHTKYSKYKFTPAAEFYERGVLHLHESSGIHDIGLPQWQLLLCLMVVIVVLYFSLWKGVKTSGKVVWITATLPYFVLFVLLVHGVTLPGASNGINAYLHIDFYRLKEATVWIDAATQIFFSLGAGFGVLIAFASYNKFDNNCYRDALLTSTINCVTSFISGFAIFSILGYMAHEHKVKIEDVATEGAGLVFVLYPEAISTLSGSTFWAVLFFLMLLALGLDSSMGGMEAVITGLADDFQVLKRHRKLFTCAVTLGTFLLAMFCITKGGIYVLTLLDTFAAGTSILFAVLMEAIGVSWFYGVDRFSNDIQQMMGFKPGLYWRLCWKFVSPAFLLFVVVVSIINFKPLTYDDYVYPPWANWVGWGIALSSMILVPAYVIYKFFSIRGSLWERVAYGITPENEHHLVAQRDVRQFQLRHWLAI
T3 sequence (P31652 whole entry): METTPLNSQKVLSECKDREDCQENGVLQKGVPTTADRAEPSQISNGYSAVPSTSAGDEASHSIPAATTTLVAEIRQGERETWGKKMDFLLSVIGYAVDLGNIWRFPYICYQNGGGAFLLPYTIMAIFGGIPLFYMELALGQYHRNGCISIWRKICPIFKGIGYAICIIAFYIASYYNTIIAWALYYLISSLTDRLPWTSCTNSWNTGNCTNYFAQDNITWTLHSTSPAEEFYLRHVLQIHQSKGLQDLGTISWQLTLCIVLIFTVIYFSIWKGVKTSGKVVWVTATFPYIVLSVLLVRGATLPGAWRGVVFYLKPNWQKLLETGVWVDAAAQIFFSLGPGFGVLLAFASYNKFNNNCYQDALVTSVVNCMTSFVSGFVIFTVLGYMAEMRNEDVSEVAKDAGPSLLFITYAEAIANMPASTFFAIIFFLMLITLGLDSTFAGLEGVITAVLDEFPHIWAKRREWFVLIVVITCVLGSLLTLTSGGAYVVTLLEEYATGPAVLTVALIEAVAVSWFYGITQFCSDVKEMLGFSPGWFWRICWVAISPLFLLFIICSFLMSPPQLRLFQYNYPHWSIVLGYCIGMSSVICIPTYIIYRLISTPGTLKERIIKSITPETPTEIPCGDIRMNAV

NC(CCCP(=O)(O)O)C(=O)O (stereo not drawn) [AP5, reference compound]
IC50 (NMDA receptor): 15 µM | induction of LTP (p<0.05) (induction of LTP): significantly blocked

NC(CCCCCP(=O)(O)O)C(=O)O (stereo not drawn) [AP7, reference compound]
induction of LTP (p<0.05) (induction of LTP): significantly blocked

CCNCCCNCCCNCCCNC(=O)Cc1c[nH]c2ccc(F)cc12 [Compound 11]
IC50 (NMDA receptor): 4 µM | Drop in Mean Arterial Blood Pressure ([1]; 1 mg/kg i.v., rats): 20 mm Hg at 1 | Drop in Mean Arterial Blood Pressure: duration ([1]; 1 mg/kg i.v., rats): mg/kg i.v., 30 min | duration of the hypotensive effect ([1]; systemic administration in rats): approximately 30 min

NCCCOCCCCOCCCNC(=O)Cc1c[nH]c2ccc(F)cc12 [Compound 12]
IC50 (NMDA receptor): 6 µM | IC50 [2]: 98 µM | IC50, prevention of sound-induced seizures (sound-induced seizures): 12.2 µg | TD50, acute motor impairment (motor performance): 30.2 µg | no effect on mean arterial blood pressure / no (significant) cardiovascular activity at doses up to ([1]; rats): ≤ 37.3 µmol/kg | no effect on mean arterial blood pressure / no (significant) cardiovascular activity at doses up to ([1]; rats, listed as Compounds 12): up to 37.3 μmoles/kg

NCCCOCCCCOCCCNC(=O)Cc1cccc2ccccc12 [Compound 14]
IC50 (NMDA receptor): 8.8 µM | IC50, prevention of sound-induced seizures (sound-induced seizures): 13.9 µg | TD50, acute motor impairment (motor performance): 30.8 µg

CC(CN)C(c1cccc(F)c1)c1cccc(F)c1 (stereo not drawn) [Compound 21, 3,3-bis(3-fluorophenyl)-2-methyl-1-propylamine]
IC50 (NMDA receptor): 0.038 µM | IC50 [2]: 0.457 µM | ED50 (sound-induced seizures): 3.41 mg/kg | TD50 (in vivo): 15.3 mg/kg

NCCC(c1cccc(Cl)c1)c1cccc(Cl)c1 [Compound 31, 3,3-bis(3-chlorophenyl)-1-propylamine]
IC50 (NMDA receptor): 0.052 µM | IC50 [2]: 1.3 µM | ED50 (sound-induced seizures): 6 mg/kg | TD50 (in vivo): 10 to 20 mg/kg

C[C@H](CN)C(c1cccc(F)c1)c1cccc(F)c1 [Compound 34, 3,3-bis(3-fluorophenyl)-2-methyl-1-propylamine]
IC50 (NMDA receptor): 0.426 µM | IC50 [2]: 2.7 µM | Central muscarinic cholinergic receptor: percent block of [3H]QNB binding ([3]; at 0.1 μM): 25% at | Central muscarinic cholinergic receptor: percent block of [3H]QNB binding ([3]; at 10 μM): 0.199% at | Monoamine uptake binding assays: dopamine uptake binding assay, percent block (dopamine uptake site; at 0.1 μM): 60% at | Monoamine uptake binding assays: dopamine uptake binding assay, percent block (dopamine uptake site; at 10 μM): 0.1^f99% at | Monoamine uptake binding assays: norepinephrine uptake binding assay, percent block ([4]; at 0.1 μM): 10^f10% at | Monoamine uptake binding assays: norepinephrine uptake binding assay, percent block ([4]; at 10 μM): 0.1^g64% at | Monoamine uptake binding assays: serotonin uptake binding assay, percent block (serotonin uptake site; at 0.1 μM): 10^g12% at | Monoamine uptake binding assays: serotonin uptake binding assay, percent block (serotonin uptake site; at 10 μM): 0.1^h79% at | ED50 (sound-induced seizures): 22 mg/kg | TD50 (in vivo): 10 to 15 mg/kg | behavioral effects (behavior; 2 mg/kg i.p.): hyperthermia | behavioral effects (behavior; 4 mg/kg i.p.): no behavioral effects | behavioral effects (behavior; 8 mg/kg i.p.): excitation, increased reactivity to touch, and hypothermia | behavioral effects (behavior; 64 mg/kg i.p.): convulsions | behavioral effects (behavior; 16 and 32 mg/kg i.p.): excitation, Straub tail, tremor, jumping, stereotypies, hypothermia, and mydriasis | behavioral effects (behavior; 128 and 256 mg/kg i.p.): convulsions and death

C[C@@H](N)CC(c1cccc(F)c1)c1cccc(F)c1 [Compound 51, 3,3-bis(3-fluorophenyl)-1-methyl-1-propylamine]
IC50 (NMDA receptor): 1.1 µM | IC50 [2]: 4.5 µM | ED50 (sound-induced seizures): 9.1 mg/kg | TD50 (motor impairment) (motor performance; i.p.): 13.6 mg/kg

Cc1ccc(F)cc1C(CCN)c1cccc(F)c1 (stereo not drawn) [Compound 57, 3-(3-fluorophenyl)-3-(3-fluoro-6-methylphenyl)-1-propylamine]
IC50 (NMDA receptor): 0.028 µM | IC50 [2]: 0.063 µM | ED50 (sound-induced seizures): 1 mg/kg | TD50 (in vivo): 6 to 8 mg/kg

N[C@H]1CCCC1C(c1cccc(F)c1)c1cccc(F)c1 (stereo partly drawn) [Compound 63]
IC50 (NMDA receptor): 0.093 µM | IC50 [2]: 0.245 µM | IC50 (L-type calcium channel): 1900 nM | Central muscarinic cholinergic receptor: percent block of [3H]QNB binding ([3]; at 0.1 μM): 11% at | Central muscarinic cholinergic receptor: percent block of [3H]QNB binding ([3]; at 10 μM): 0.181% at | Monoamine uptake binding assays: dopamine uptake binding assay, percent block (dopamine uptake site; at 0.1 μM): 64% at | Monoamine uptake binding assays: dopamine uptake binding assay, percent block (dopamine uptake site; at 10 μM): 0.1^f98% at | Monoamine uptake binding assays: norepinephrine uptake binding assay, percent block ([4]; at 0.1 μM): 10^f7% at | Monoamine uptake binding assays: norepinephrine uptake binding assay, percent block ([4]; at 10 μM): 0.1^g76% at | Monoamine uptake binding assays: serotonin uptake binding assay, percent block (serotonin uptake site; at 0.1 μM): 10^g13% at | Monoamine uptake binding assays: serotonin uptake binding assay, percent block (serotonin uptake site; at 10 μM): 0.1^h85% at

N[C@@H]1CCCC1C(c1cccc(F)c1)c1cccc(F)c1 (stereo partly drawn) [Compound 64]
IC50 (NMDA receptor): 0.309 µM | IC50 [2]: 0.851 µM | Central muscarinic cholinergic receptor: percent block of [3H]QNB binding ([3]; at 0.1 μM): 11% at | Central muscarinic cholinergic receptor: percent block of [3H]QNB binding ([3]; at 10 μM): 0.183% at | Monoamine uptake binding assays: dopamine uptake binding assay, percent block (dopamine uptake site; at 0.1 μM): 50% at | Monoamine uptake binding assays: dopamine uptake binding assay, percent block (dopamine uptake site; at 10 μM): 0.1^f99% at | Monoamine uptake binding assays: norepinephrine uptake binding assay, percent block ([4]; at 0.1 μM): 8% at | Monoamine uptake binding assays: norepinephrine uptake binding assay, percent block ([4]; at 10 μM): 0.1^g65% at | Monoamine uptake binding assays: serotonin uptake binding assay, percent block (serotonin uptake site; at 0.1 μM): 10^g29% at | Monoamine uptake binding assays: serotonin uptake binding assay, percent block (serotonin uptake site; at 10 μM): 0.1^h68% at

NCCC(Oc1cccc(F)c1)c1cccc(F)c1 (stereo not drawn) [Compound 119]
IC50 (NMDA receptor): 0.115 µM | IC50 [2]: 0.087 µM | ED50 (sound-induced seizures): 7 mg/kg | TD50 (in vivo): 26.3 mg/kg

NCCC(Oc1cccc(Cl)c1)c1cccc(F)c1 (stereo not drawn) [Compound 120]
IC50 (NMDA receptor): 0.101 µM | IC50 [2]: 0.074 µM | ED50 (sound-induced seizures): 4.77 mg/kg | TD50 (in vivo): 20 to 30 mg/kg

NCCC(Oc1ccccc1F)c1cccc(F)c1 (stereo not drawn) [Compound 122]
IC50 (NMDA receptor): 0.209 µM | IC50 [2]: 0.342 µM | ED50 (sound-induced seizures): 4.7 mg/kg | TD50 (in vivo): 15.3 mg/kg

NCCC1c2ccccc2CCc2ccccc21 [Compound 156, 5-(2-Aminoethyl)-5H-10,11-dihydrodibenzo[a,d]cycloheptene hydrochloride]
IC50 (NMDA receptor): 0.069 µM | IC50 ([2]; hydrochloride): 0.09 µM and 0.081 µM | ED50 (sound-induced seizures): 5 mg/kg | TD50 (in vivo): 17.4 mg/kg

CCC(NCCC(c1ccccc1)c1ccccc1)c1cccc(Cl)c1 (stereo not drawn) [Compound 159]
IC50 (NMDA receptor): 0.185 µM | IC50 [2]: 10.4 µM

CCC(NCCC(c1ccccc1)c1ccccc1)c1ccc(Cl)cc1 (stereo not drawn) [Compound 160]
IC50 (NMDA receptor): 7.35 µM | IC50 [2]: 48.9 µM

CCC(NCCC(c1ccccc1)c1ccccc1)c1cccc(Br)c1 (stereo not drawn) [Compound 161]
IC50 (NMDA receptor): 0.247 µM | IC50 [2]: 5.62 µM
